Assay results published in patent US10344019B2 (priority 2010, dated 2019).
Like-named read-outs stand apart in the source and are kept apart here.

Assays:
Experiment in all cases: microbe, parasite or virus in culture
Type in all cases: cell-based
[1] = system: HCV 1b RLuc cells (dicistronic genotype 1b Con1 replicon, RLuc reporter)
Experimental: (§1) Evaluation of cell-based anti-HCV activity: Antiviral potency (EC50) was determined using a Renilla luciferase (RLuc)-based HCV replicon reporter assay. To perform the assay for genotype 1 and 2a JFH-1, HCV 1b RLuc cells (harboring a dicistronic genotype 1b Con1 replicon that encodes a RLuc reporter), or HCV 1a RLuc cells (harboring a dicistronic genotype 1a H77 replicon that encodes a RLuc reporter), or HCV 2a JFH-1 Rluc cells (harboring a dicistronic genotype 2a JFH-1 replicon that encodes a RLuc reporter) were dispensed into 384-well plates. To perform the assay for genotype 2a (with M31 present) or 2b, HCV 2a Rluc or 2b Rluc cells (both with M31 present) harboring a dicistronic NS5A chimeric genotype 2a JFH-1 replicon that encodes a RLuc reporter and either genotype 2a J6 strain NS5A gene or genotype 2b MD2b-1 NS5A gene (based on Los Alamos HCV database isolates, both with M31 present) respectively, were dispensed into 384-well plates. To perform the assay for genotype 3 and 4, HCV 3a RLuc or 4a Rluc cells harboring a dicistronic NS5A chimeric genotype 1b Con1 replicon that encodes a RLuc reporter and either a consensus genotype 3a NS5A gene or genotype 4a NS5A gene (based on Los Alamos HCV database isolates) respectively, were dispensed into 384-well plates. Compounds were re-suspended in DMSO at a concentration of 10 mM and serially diluted in DMSO either manually or using an automated pipeting instrument. Serially diluted compounds were mixed with cell culture media and added to the seeded cells. […] 72 hours later, cells were lysed and Renilla luciferase activity quantified as recommended by the manufacturer (Promega-Madison, Wis.). Non-linear regression was performed to calculate EC50 values.

[2] = system: HCV 1a RLuc cells (dicistronic genotype 1a H77 replicon, RLuc reporter); details: genotype 1a H77 replicon, RLuc reporter, read-out: 1a
Experimental: as §1

[3] = system: HCV 3a RLuc cells (NS5A chimeric genotype 1b Con1 replicon with consensus genotype 3a NS5A gene)
Experimental: as §1

[4] = system: HCV 2a JFH-1 Rluc cells (dicistronic genotype 2a JFH-1 replicon, RLuc reporter); details: genotype 2a JFH-1 replicon, RLuc reporter, read-out: 2a JFH
Experimental: as §1

[5] = Hepatitis C virus, read-out: 1b (nM)
[6] = Hepatitis C virus, read-out: 3a, genotype 3a NS5A chimeric 1b Con1 replicon

Compound | EC50 [1, 5] [nM] | EC50 ([2]; Hepatitis C virus) [nM] | EC50 [3, 6] [nM] | EC50 ([4]; Hepatitis C virus) [nM] | EC50 ([1]; read-out: 1b) [nM] | EC50 ([3]; read-out: 3a, genotype 3a NS5A chimeric 1b Con1 replicon) [nM] | EC50 [2] [nM] | EC50 [4] [nM]
COC(=O)N[C@H](C(=O)N1CCC[C@H]1c1ncc(-c2ccc(-c3ccc4cc(-c5cnc([C@@H]6CCCN6C(=O)[C@@H](NC(=O)OC)C(C)C)[nH]5)ccc4c3)cc2)[nH]1)c1ccccc1Cl [Example 103] | 0.007 | 0.001 to 0.999 | 0.001 to 0.99 | 0.001 to 0.999 |  |  |  | 
COC(=O)N[C@H](C(=O)N1CCC[C@H]1c1ncc(-c2ccc3cc(-c4ccc5c(c4)CCc4nc([C@@H]6CCCN6C(=O)[C@H](NC(=O)OC)c6ccccc6)[nH]c4-5)ccc3c2)[nH]1)C1CCOCC1 [Example 170] | 0.032 | 0.001 to 0.999 | 0.001 to 0.99 | 0.001 to 0.999 |  |  |  | 
COC(=O)N[C@H](C(=O)N1CCC[C@H]1c1ncc(-c2ccc(-c3ccc4cc(-c5cnc(C6CCCN6C(=O)[C@H](NC(=O)OC)c6ccccc6)[nH]5)ccc4c3)cc2)[nH]1)C1CCOCC1 (some centres unmarked) [Example 154] | 0.014 | 0.001 to 0.999 | 0.001 to 0.99 | 0.001 to 0.999 |  |  |  | 
COC(=O)N[C@H](C(=O)N1C[C@H](C)C[C@H]1c1ncc(-c2cc3cc4sc(-c5cnc([C@@H]6C[C@@H](C)CN6C(=O)[C@@H](NC(=O)OC)C(C)C)[nH]5)cc4cc3s2)[nH]1)C(C)C [Example 121] | 0.011 | 0.001 to 0.999 | 1 to 4.99 | 0.001 to 0.999 |  |  |  | 
COC(=O)NC(C(=O)N1CCC[C@H]1c1ncc(-c2ccc3cc(-c4ccc(-c5cnc([C@@H]6CCCN6C(=O)[C@@H](NC(=O)OC)C(C)C)[nH]5)cc4)ccc3c2)[nH]1)c1ccc(OC(F)(F)F)cc1 (some centres unmarked) [Example 111] | 0.16 | 1 to 44 | > 5 | > 44 |  |  |  | 
COC(=O)N[C@H](C(=O)N1CCC[C@H]1c1ncc(-c2ccc(-c3ccc4cc(-c5cnc([C@@H]6C[C@H](C#N)CN6C(=O)[C@@H](c6ccccc6)N(C)C)[nH]5)ccc4c3)cc2)[nH]1)C(C)C [Example 118] | 0.027 | 0.001 to 0.999 | 0.001 to 0.99 | 0.001 to 0.999 |  |  |  | 
COC(=O)N[C@H](C(=O)N1CCC[C@H]1c1ncc(-c2ccc3cc(-c4ccc(-c5cnc([C@@H]6CCCN6C(=O)[C@H](NC(=O)OC)c6ccccc6F)[nH]5)cc4)ccc3c2)[nH]1)C(C)C [Example 148] |  | 0.001 to 0.999 |  | 0.001 to 0.999 | 0.02 | 1 to 4.99 |  | 
COC(=O)N[C@H](C(=O)N1CCC[C@H]1c1nc(-c2ccc3cc(-c4ccc(-c5c[nH]c([C@@H]6CCCN6C(=O)[C@@H](c6ccccc6)N(C6CC6)C6CC6)n5)cc4)ccc3c2)c[nH]1)C(C)C [Example 179] | 0.041 | 1 to 44 | > 5 | 1 to 44 |  |  |  | 
COC(=O)N[C@H](C(=O)N1CCC[C@H]1c1nc2ccc3cc(-c4ccc5cc(-c6cnc([C@@H]7CCCN7C(=O)[C@H](NC(=O)OC)c7ccccc7)[nH]6)ccc5c4)ccc3c2[nH]1)C1CCOCC1 [Example 175] | 0.011 | 0.001 to 0.999 | 0.001 to 0.99 | 0.001 to 0.999 |  |  |  | 
COC(=O)N[C@H](C(=O)N1CCC[C@H]1c1ncc(-c2ccc3c(c2)CCc2cc(-c4cnc([C@@H]5CCCN5C(=O)[C@H](NC(=O)OC)c5ccccc5)[nH]4)ccc2-3)[nH]1)C(C)C [Example 180] | 0.007 | 0.001 to 0.999 | 0.001 to 0.99 | 0.001 to 0.999 |  |  |  | 
COC(=O)N[C@H](C(=O)N1CCC[C@H]1c1nc2c([nH]1)COc1cc(-c3ccc4cc(-c5c[nH]c([C@@H]6CCCN6C(=O)[C@H](NC(=O)OC)c6ccccc6)n5)ccc4c3)ccc1-2)C(C)C [Example 176] | 0.006 | 0.001 to 0.999 | 0.001 to 0.99 | 0.001 to 0.999 |  |  |  | 
COC(=O)N[C@H](C(=O)N1CCC[C@H]1c1nc2c([nH]1)-c1ccc(-c3ccc4cc(-c5cnc([C@@H]6COCCN6C(=O)[C@H](NC(=O)OC)c6ccccc6)[nH]5)ccc4c3)cc1CC2)C(C)C [Example 211] | 0.009 | 0.001 to 0.999 | 1 to 4.99 | 1 to 44 |  |  |  | 
COC(=O)N[C@H](C(=O)N1CCC[C@H]1c1ncc(-c2ccc3cc(-c4ccc5c(ccc6nc([C@@H]7CCCN7C(=O)[C@H](NC(=O)OC)c7ccccc7)[nH]c65)c4)ccc3c2)[nH]1)C1CCOCC1 [Example 173] | 0.024 | 0.001 to 0.999 | 0.001 to 0.99 | 0.001 to 0.999 |  |  |  | 
COC(=O)N[C@H](C(=O)N1CCC[C@H]1c1ncc(-c2ccc3cc(-c4ccc(-c5cnc([C@@H]6CCCN6C(=O)[C@@](C)(NC(=O)OC)c6ccccc6)[nH]5)cc4)ccc3c2)[nH]1)C(C)C [Example 163] | 0.031 | 1 to 44 | > 5 | 1 to 44 |  |  |  | 
COC(=O)N[C@@H](CC1CCOCC1)C(=O)N1CCC[C@H]1c1ncc(-c2ccc3cc(-c4ccc(-c5cnc([C@@H]6CCCN6C(=O)[C@H](NC(=O)OC)c6ccccc6)[nH]5)cc4)ccc3c2)[nH]1 [Example 213] | 0.03 | 0.001 to 0.999 | 0.001 to 0.99 | 0.001 to 0.999 |  |  |  | 
COC(=O)N[C@H](C(=O)N1CCC[C@H]1c1ncc(-c2ccc3cc(-c4ccc(-c5cnc([C@@H]6CCCN6C(=O)C(c6ccccc6)N(C)C)[nH]5)cc4)ccc3c2)[nH]1)C(C)C (some centres unmarked) [Example 134] | 0.007 | 0.001 to 0.999 | 0.001 to 0.99 | 0.001 to 0.999 |  |  |  | 
COC(=O)N[C@H](C(=O)N1CCC[C@H]1c1ncc(-c2ccc3cc(-c4ccc(-c5cnc([C@@H]6CCCN6C(=O)C6(NC(=O)OC)Cc7ccccc7C6)[nH]5)cc4)ccc3c2)[nH]1)C(C)C [Example 191] | 0.253 | 1 to 44 | > 5 | > 44 |  |  |  | 
COC(=O)N[C@H](C(=O)N1CCC[C@H]1c1nc2c([nH]1)-c1ccc(-c3ccc4cc(-c5cnc([C@@H]6CCCN6C(=O)[C@H](NC(=O)OC)c6ccccc6)[nH]5)ccc4c3)cc1CC2)C(C)C [Example 210] | 0.008 | 0.001 to 0.999 | 0.001 to 0.99 | 0.001 to 0.999 |  |  |  | 
CCN(C1CC1)[C@@H](C(=O)N1CCC[C@H]1c1nc(-c2ccc(-c3ccc4cc(-c5c[nH]c([C@@H]6CCCN6C(=O)[C@@H](NC(=O)OC)C(C)C)n5)ccc4c3)cc2)c[nH]1)c1ccccc1 [Example 168] | 0.01 | 1 to 44 | 0.001 to 0.99 | 1 to 44 |  |  |  | 
COC(=O)N[C@H](C(=O)N1CCC[C@H]1c1ncc(-c2ccc3c(c2)CCc2cc(-c4ccc5nc([C@@H]6CCCN6C(=O)[C@H](NC(=O)OC)c6ccccc6)[nH]c5c4)ccc2-3)[nH]1)C(C)C [Example 189] | 0.006 | 0.001 to 0.999 | 0.001 to 0.99 | 0.001 to 0.999 |  |  |  | 
CN(C)C(C(=O)N1CCC[C@H]1c1ncc(-c2ccc3cc(-c4ccc(-c5cnc([C@@H]6CCCN6C(=O)[C@H](C6CCOCC6)N(C)C)[nH]5)cc4)ccc3c2)[nH]1)c1ccccc1 (some centres unmarked) [Example 156] | 0.028 | 0.001 to 0.999 | 0.001 to 0.99 | 0.001 to 0.999 |  |  |  | 
COC(=O)N[C@H](C(=O)N1CCC[C@H]1c1nc2c([nH]1)-c1ccc(-c3ccc4cc(-c5cnc([C@@H]6CCCN6C(=O)[C@H](NC(=O)OC)c6ccccc6)[nH]5)ccc4c3)cc1CC2)C1CCOCC1 [Example 174] |  |  | 0.001 to 0.99 |  | 0.015 |  | 0.001 to 0.999 | 0.001 to 0.999
COC(=O)N[C@H](C(=O)N1CCC[C@H]1c1nc(-c2ccc(-c3ccc4cc(C5=CNC([C@@H]6CCCN6C(=O)[C@H](NC(=O)OC)c6ccccc6)N5)ccc4c3)cc2)c[nH]1)C1CCOCC1 (some centres unmarked) [Example 178] | 0.024 | 0.001 to 0.999 | 0.001 to 0.99 | 0.001 to 0.999 |  |  |  | 
COC(=O)N[C@H](C(=O)C1CCSC1c1ncc(-c2ccc(-c3ccc4cc(-c5cnc([C@@H]6CCCN6C(=O)[C@H](NC(=O)OC)c6ccccc6)[nH]5)ccc4c3)cc2)[nH]1)C(C)C (some centres unmarked) [Example 131] | 0.009 | 0.001 to 0.999 | 0.001 to 0.99 | 0.001 to 0.999 |  |  |  | 
COC(=O)N[C@H](C(=O)N1CCC[C@H]1c1ncc(-c2ccc3cc(-c4ccc(-c5cnc([C@@H]6C[C@@H](C#N)CN6C(=O)[C@H](NC(=O)OC)c6ccccc6)[nH]5)cc4)ccc3c2)[nH]1)C(C)C [Example 145] | 0.01 | 0.001 to 0.999 | 1 to 4.99 | 0.001 to 0.999 |  |  |  | 
COC(=O)N[C@H](C(=O)N1CCC[C@H]1c1ncc(-c2ccc3cc(-c4ccc(-c5cnc([C@@H]6C[C@@H](F)CN6C(=O)[C@H](NC(=O)OC)c6ccccc6)[nH]5)cc4)ccc3c2)[nH]1)C(C)C [Example 139] | 0.004 | 0.001 to 0.999 | 0.001 to 0.99 | 1 to 44 |  |  |  | 
